Experimental data from patent US20250115581A1, “SUBSTITUTED PIPERIDINES AS CK1A DEGRADERS” (Monte Rosa Therapeutics, Inc., priority 2022, published 2025).
pIC50: −log10 of the molar value.

How the values were obtained:
LS180 = test: Growth inhibition, CyQUANT Direct Cell Proliferation Assay, LS180; type: cell-based; details: Homo sapiens; LS180 cells, 120 to 168 hours
Method: (§1) SKCO1, LS180, and LS174T cell lines were purchased from ATCC. CW2 cell line was purchased from Riken. GP2D cell line was purchased from Sigma/ECACC. All cell lines were cultured in manufacturer's recommended media at 37° C., 5% CO2. Briefly, cells were suspended in 200 μL of media and seeded at 300 to 1,800 cells per well in tissue culture treated 96-well plates with black walls and clear bottom. Plates were incubated overnight and initial (TO) read was performed the following day using CyQUANT Direct Cell Proliferation Assay Kit (Thermo Fisher Scientific) according to manufacturer's protocol. All compounds were solubilized in DMSO and prepared at 3-fold serial dilution, using 9 points starting at 30 μM as highest concentration, administered to cells and incubated for 120 to 168 hours, at which point CyQUANT assay measurement was performed using Acumen Cellista instrument (Ex/Em 480/520 nm). Media-only wells were used as blank, and 0.3% DMSO was used as DMSO-treated cell control. Growth inhibition (percent response) was calculated using the following formula in Excel: “=if ([Compound treated Day N]>[Untreated Day 0, AVG], ([Compound treated Day N]− [Untreated Day 0, AVG])/([Untreated Day N]−[Untreated Day 0, AVG])*100, ([Compound Treated Day N]−[Untreated Day 0, AVG])/([Untreated Day 0, AVG])*100)”. GI50 is the response corresponding to the 50% of untreated control.
(§2) GI50 data are reported in Tables 4a, 4b, 4c, 4d, and 4e for compounds in Table 1. In Tables 4a, 4b, 4c, 4d, and 4e below, According to the code, A represents a GI50 value of ≤0.1 μM, B represents a GI50 value >0.1 μM and ≤1 μM, C represents an GI50 value >1 μM.

CW2 = test: Growth inhibition, CyQUANT Direct Cell Proliferation Assay, CW2; type: cell-based; details: Homo sapiens, CW-2; CW2 cells, 120 to 168 hours
Method: as §1, §2

CK1α = target: T1, CK1α (Homo sapiens, UniProt P48729+Q96SW2); test: CK1α NanoBit Assay (HiBiT-tagged CSNK1A1 in HEK293 cells, luminescence); type: cell-based; details: 24 h
T1 construct: HEK293 clonal lines with CRISPR KI HiBiT tag on CSNK1A1; host or cells: HEK293 clonal line, CRISPR knock-in HiBiT at the CSNK1A1 locus, stably expressing LgBiT
T1 sequence (P48729 whole entry): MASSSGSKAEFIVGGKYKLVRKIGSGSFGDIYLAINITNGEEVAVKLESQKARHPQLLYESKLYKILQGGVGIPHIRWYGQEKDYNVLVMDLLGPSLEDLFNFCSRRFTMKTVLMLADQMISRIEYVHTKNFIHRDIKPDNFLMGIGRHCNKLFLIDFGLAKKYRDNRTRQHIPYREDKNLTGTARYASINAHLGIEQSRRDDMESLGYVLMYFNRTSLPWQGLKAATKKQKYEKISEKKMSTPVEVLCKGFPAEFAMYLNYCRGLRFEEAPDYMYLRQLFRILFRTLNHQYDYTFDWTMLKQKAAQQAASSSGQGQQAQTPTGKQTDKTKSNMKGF
T1 sequence (Q96SW2 whole entry): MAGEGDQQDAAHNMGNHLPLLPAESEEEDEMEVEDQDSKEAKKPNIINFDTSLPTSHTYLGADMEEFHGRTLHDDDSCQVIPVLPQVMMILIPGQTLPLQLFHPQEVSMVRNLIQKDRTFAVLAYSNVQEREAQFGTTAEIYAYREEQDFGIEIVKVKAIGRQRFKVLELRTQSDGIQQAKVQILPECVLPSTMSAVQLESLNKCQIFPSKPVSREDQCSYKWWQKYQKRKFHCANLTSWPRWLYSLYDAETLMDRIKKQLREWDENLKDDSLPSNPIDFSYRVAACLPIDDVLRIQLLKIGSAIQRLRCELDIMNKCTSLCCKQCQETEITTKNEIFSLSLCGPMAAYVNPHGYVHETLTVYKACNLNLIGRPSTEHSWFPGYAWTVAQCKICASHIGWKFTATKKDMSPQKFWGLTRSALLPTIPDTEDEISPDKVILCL
T1 sequence (Q16531 whole entry partner): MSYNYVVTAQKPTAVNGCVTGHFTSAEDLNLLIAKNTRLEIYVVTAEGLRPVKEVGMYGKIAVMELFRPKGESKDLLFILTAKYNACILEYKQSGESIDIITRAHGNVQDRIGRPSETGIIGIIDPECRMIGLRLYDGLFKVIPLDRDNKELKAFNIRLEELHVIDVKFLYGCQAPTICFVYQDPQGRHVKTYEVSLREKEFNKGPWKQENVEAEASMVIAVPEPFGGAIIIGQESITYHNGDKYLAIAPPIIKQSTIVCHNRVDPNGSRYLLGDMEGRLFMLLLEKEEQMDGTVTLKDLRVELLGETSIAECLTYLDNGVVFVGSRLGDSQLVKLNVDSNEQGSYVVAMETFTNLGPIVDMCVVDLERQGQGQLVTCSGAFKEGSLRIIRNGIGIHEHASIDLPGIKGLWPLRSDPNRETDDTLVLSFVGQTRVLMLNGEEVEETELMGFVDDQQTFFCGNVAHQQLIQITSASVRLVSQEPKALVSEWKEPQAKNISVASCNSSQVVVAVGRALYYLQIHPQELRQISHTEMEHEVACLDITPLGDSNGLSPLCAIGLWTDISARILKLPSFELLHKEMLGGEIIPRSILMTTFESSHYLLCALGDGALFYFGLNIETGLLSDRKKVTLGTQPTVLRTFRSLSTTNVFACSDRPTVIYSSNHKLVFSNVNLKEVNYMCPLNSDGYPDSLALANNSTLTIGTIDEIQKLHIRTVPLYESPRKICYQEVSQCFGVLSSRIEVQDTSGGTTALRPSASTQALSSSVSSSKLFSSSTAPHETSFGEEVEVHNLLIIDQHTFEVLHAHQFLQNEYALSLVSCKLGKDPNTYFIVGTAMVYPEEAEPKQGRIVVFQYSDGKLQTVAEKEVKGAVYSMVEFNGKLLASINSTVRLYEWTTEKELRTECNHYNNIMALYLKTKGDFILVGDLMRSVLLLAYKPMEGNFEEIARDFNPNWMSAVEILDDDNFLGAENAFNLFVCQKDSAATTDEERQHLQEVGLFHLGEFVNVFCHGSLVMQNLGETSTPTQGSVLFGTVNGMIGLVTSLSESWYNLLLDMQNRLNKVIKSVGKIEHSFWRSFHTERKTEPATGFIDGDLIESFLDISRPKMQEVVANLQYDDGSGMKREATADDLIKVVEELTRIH
Summary of the method: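 HEK293 with endogenous HiBiT-tagged CSNK1A1 and stable LgBiT, live-cell Endurazine substrate; compound added at 10 or 30 μM final top concentration after 16 h plating, then 24 h at 37 °C. Luminescence normalised to plate controls; DC50 by 3-parameter logistic fit, hill slope 1.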

GP2D = test: Growth inhibition, CyQUANT Direct Cell Proliferation Assay, GP2D; type: cell-based; details: GP2D cells, 120 to 168 hours
Method: as §1, §2

LS174T = test: Growth inhibition, CyQUANT Direct Cell Proliferation Assay, LS174T; type: cell-based; details: Homo sapiens; LS174T cells, 120 to 168 hours
Method: as §1, §2

CRBN/DDB1 = CRBN/DDB1 (Homo sapiens, UniProt Q96SW2); test: HTRF binding assay (displacement of Cy5-thalidomide probe from CRBN/DDB1); details: CRBN/DDB1 2.5 nM, Cy5-Thalidomide 100 nM, 30 min; geometric mean; read-out: HTRF_Thali_Disp_DR_geo_IC50
Chain of CRBN/DDB1 (Q96SW2 whole entry): as the sequence (Q96SW2 whole entry) above
Chain of CRBN/DDB1 (Q16531 whole entry partner): as the sequence (Q16531 whole entry partner) above
Summary of the method: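 HTRF displacement of Cy5-thalidomide probe (100 nM) from His-tagged CRBN/DDB1 (2.5 nM) with anti-His terbium cryptate, in HEPES/NaCl/TCEP/EDTA/Tween20 buffer; 10-point 1:3 series, 30 min at ambient temperature. 665/620 nm ratio fitted 4-parameter logistic for IC50; Ki via Cheng-Prusoff.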

SKCO1 = test: Growth inhibition, CyQUANT Direct Cell Proliferation Assay, SKCO1; type: cell-based; details: Homo sapiens, SK-CO-1; SKCO1 cells, 120 to 168 hours
Method: as §1, §2

DC50 (CK1α) | pIC50 (CRBN/DDB1) | GI50 (SKCO1) | SMILES | GI50 (LS180) | GI50 (CW2) | GI50 (GP2D) | GI50 (LS174T)
≤ 0.1 µM | 6.00 to 7.00 | 100 to 1000 nM | O=C1CCC(N2Cc3cc(N4CCN(c5ccc(C(F)(F)F)nc5)C4=O)ccc3C2=O)C(=O)N1 (centres unmarked) [Compound 126, 3-(1-oxo-5-(2-oxo-3-(6-(trifluoromethyl)pyridin-3-yl)imidazolidin-1-yl)isoindolin-2-yl)piperidine-2,6-dione] | 100 to 1000 nM | ≤ 100 nM | 100 to 1000 nM | 100 to 1000 nM
≤ 0.1 µM | 6.00 to 7.00 | 100 to 1000 nM | O=C1CCC(N2Cc3cc(N4CCN(c5ccc(C(F)F)nc5)C4=O)ccc3C2=O)C(=O)N1 (centres unmarked) [Compound 124, 3-(5-(3-(6-(difluoromethyl)pyridin-3-yl)-2-oxoimidazolidin-1-yl)-1-oxoisoindolin-2-yl)piperidine-2,6-dione] | 100 to 1000 nM | ≤ 100 nM | 100 to 1000 nM | ≤ 100 nM
≤ 0.1 µM | 6.00 to 7.00 | 100 to 1000 nM | C[C@@H]1CN(c2ccc3c(c2)CN(C2CCC(=O)NC2=O)C3=O)C(=O)N1c1ccc(C2CC2)nc1 (stereo partly drawn) [Compound 137, 3-(5-((R)-3-(6-cyclopropylpyridin-3-yl)-4-methyl-2-oxoimidazolidin-1-yl)-1-oxoisoindolin-2-yl)piperidine-2,6-dione] | > 1000 nM | 100 to 1000 nM | > 1000 nM | 100 to 1000 nM
≤ 0.1 µM | 6.00 to 7.00 | 100 to 1000 nM | Cc1ccc(N2CCN(c3ccc4c(c3)CN(C3CCC(=O)NC3=O)C4=O)C2=O)cn1 (centres unmarked) [Compound 104, 3-(5-(3-(6-methylpyridin-3-yl)-2-oxoimidazolidin-1-yl)-1-oxoisoindolin-2-yl)piperidine-2,6-dione] | 100 to 1000 nM | 100 to 1000 nM | 100 to 1000 nM | 100 to 1000 nM
0.1 to 1 µM | 6.00 to 7.00 | – | O=C1CCC(N2Cc3cc(N4C[C@@H](C(F)(F)F)N(c5ccccc5)C4=O)ccc3C2=O)C(=O)N1 (stereo partly drawn) [Compound 106, 3-(1-oxo-5-((S)-2-oxo-3-phenyl-4-(trifluoromethyl)imidazolidin-1-yl)isoindolin-2-yl)piperidine-2,6-dione] | – | – | – | –
0.1 to 1 µM | 6.00 to 7.00 | – | Cc1ccc(N2C(=O)N(c3ccc4c(c3)CN(C3CCC(=O)NC3=O)C4=O)C[C@H]2C)nc1 (stereo partly drawn) [Compound 156, 3-(5-((R)-4-methyl-3-(5-methylpyridin-2-yl)-2-oxoimidazolidin-1-yl)-1-oxoisoindolin-2-yl)piperidine-2,6-dione] | – | – | – | –
≤ 0.1 µM | < 6.00 | ≤ 100 nM | O=C1CCC(N2Cc3cc(N4CCN(c5ccc(C6CC6)cc5)C4=O)ccc3C2=O)C(=O)N1 (centres unmarked) [Compound 123, 3-(5-(3-(4-cyclopropylphenyl)-2-oxoimidazolidin-1-yl)-1-oxoisoindolin-2-yl)piperidine-2,6-dione] | 100 to 1000 nM | ≤ 100 nM | 100 to 1000 nM | ≤ 100 nM
≤ 0.1 µM | 6.00 to 7.00 | – | COC1(c2ccc(N3CCN(c4ccc5c(c4)CN(C4CCC(=O)NC4=O)C5=O)C3=O)cc2)CC1 (centres unmarked) [Compound 133, 3-(5-(3-(4-(1-methoxycyclopropyl)phenyl)-2-oxoimidazolidin-1-yl)-1-oxoisoindolin-2-yl)piperidine-2,6-dione] | – | – | – | –
≤ 0.1 µM | 6.00 to 7.00 | ≤ 100 nM | Cc1ccc(N2CCN(c3ccc4c(c3)CN(C3CCC(=O)NC3=O)C4=O)C2=O)cc1 (centres unmarked) [Compound 111, 3-(1-oxo-5-(2-oxo-3-(p-tolyl)imidazolidin-1-yl)isoindolin-2-yl) piperidine-2,6-dione] | 100 to 1000 nM | ≤ 100 nM | 100 to 1000 nM | 100 to 1000 nM
0.1 to 1 µM | < 6.00 | – | O=C1CCC(N2Cc3cc(N4CCN(C5CCC5)C4=O)ccc3C2=O)C(=O)N1 (centres unmarked) [Compound 159, 3-(5-(3-cyclobutyl-2-oxoimidazolidin-1-yl)-1-oxoisoindolin-2-yl)piperidine-2,6-dione] | – | – | – | –
> 1 µM | 6.00 to 7.00 | – | O=C1CCC(N2Cc3cc(N4CCN(C5COC5)C4=O)ccc3C2=O)C(=O)N1 (centres unmarked) [Compound 178, 3-(5-(3-(oxetan-3-yl)-2-oxoimidazolidin-1-yl)-1-oxoisoindolin-2-yl)piperidine-2,6-dione] | – | – | – | –
≤ 0.1 µM | 6.00 to 7.00 | – | COC[C@@H]1CN(c2ccc3c(c2)CN(C2CCC(=O)NC2=O)C3=O)C(=O)N1c1ccc(C)cc1 (stereo partly drawn) [Compound 143, 3-(5-((S)-4-(methoxymethyl)-2-oxo-3-(p-tolyl)imidazolidin-1-yl)-1-oxoisoindolin-2-yl)piperidine-2,6-dione] | – | – | – | –
≤ 0.1 µM | 6.00 to 7.00 | – | CO[C@@H](C)c1cccc(N2CCN(c3ccc4c(c3)CN(C3CCC(=O)NC3=O)C4=O)C2=O)c1 (stereo partly drawn) [Compound 139, 3-(5-(3-(3-((S)-1-methoxyethyl)phenyl)-2-oxoimidazolidin-1-yl)-1-oxoisoindolin-2-yl)piperidine-2,6-dione] | – | – | – | –
≤ 0.1 µM | 6.00 to 7.00 | – | C[C@@H]1CN(c2ccc3c(c2)CN(C2CCC(=O)NC2=O)C3=O)C(=O)N1C1CCCC1 (stereo partly drawn) [Compound 138, 3-(5-((R)-3-cyclopentyl-4-methyl-2-oxoimidazolidin-1-yl)-1-oxoisoindolin-2-yl)piperidine-2,6-dione] | – | – | – | –
≤ 0.1 µM | 6.00 to 7.00 | – | Cc1ccc(N2C(=O)N(c3ccc4c(c3)CN(C3CCC(=O)NC3=O)C4=O)C[C@H]2C)cc1 (stereo partly drawn) [Compound 130, 3-(5-((R)-4-methyl-2-oxo-3-(p-tolyl)imidazolidin-1-yl)-1-oxoisoindolin-2-yl) piperidine-2,6-dione] | – | – | – | –
≤ 0.1 µM | 6.00 to 7.00 | – | O=C1CCC(N2Cc3cc(N4CCN(c5ccc(C6CCOC6)cc5)C4=O)ccc3C2=O)C(=O)N1 (centres unmarked) [Compound 144, 3-(1-oxo-5-(2-oxo-3-(4-(tetrahydrofuran-3-yl)phenyl)imidazolidin-1-yl)isoindolin-2-yl)piperidine-2,6-dione] | – | – | – | –
> 1 µM | ≥ 7.00 | – | CN1CC(c2ccc(N3CCN(c4ccc5c(c4)CN(C4CCC(=O)NC4=O)C5=O)C3=O)cc2)C1 (centres unmarked) [Compound 176, 3-(5-(3-(4-(1-methylazetidin-3-yl)phenyl)-2-oxoimidazolidin-1-yl)-1-oxoisoindolin-2-yl)piperidine-2,6-dione] | – | – | – | –
≤ 0.1 µM | 6.00 to 7.00 | – | COCc1ccc(N2CCN(c3ccc4c(c3)CN(C3CCC(=O)NC3=O)C4=O)C2=O)cc1 (centres unmarked) [Compound 128, 3-(5-(3-(4-(methoxymethyl)phenyl)-2-oxoimidazolidin-1-yl)-1-oxoisoindolin-2-yl)piperidine-2,6-dione] | – | – | – | –
0.1 to 1 µM | 6.00 to 7.00 | – | CN1CCN(c2ccc(N3CCN(c4ccc5c(c4)CN(C4CCC(=O)NC4=O)C5=O)C3=O)cc2)CC1 (centres unmarked) [Compound 163, 3-(5-(3-(4-(4-methylpiperazin-1-yl)phenyl)-2-oxoimidazolidin-1-yl)-1-oxoisoindolin-2-yl)piperidine-2,6-dione] | – | – | – | –
≤ 0.1 µM | 6.00 to 7.00 | – | C[C@H]1CN(c2ccc3c(c2)CN(C2CCC(=O)NC2=O)C3=O)C(=O)N1c1ccccc1 (stereo partly drawn) [Compound 109, 3-(5-((S)-4-methyl-2-oxo-3-phenylimidazolidin-1-yl)-1-oxoisoindolin-2-yl) piperidine-2,6-dione] | – | – | – | –
0.1 to 1 µM | 6.00 to 7.00 | – | C[C@@H]1CN(c2ccc3c(c2)CN(C2CCC(=O)NC2=O)C3=O)C(=O)N1C1CCOC1 (stereo partly drawn) [Compound 161, 3-(5-((4R)-4-methyl-2-oxo-3-(tetrahydrofuran-3-yl)imidazolidin-1-yl)-1-oxoisoindolin-2-yl)piperidine-2,6-dione] | – | – | – | –
≤ 0.1 µM | < 6.00 | – | O=C1CCC(N2Cc3cc(N4CCN(c5ccc6c(c5)OCC6)C4=O)ccc3C2=O)C(=O)N1 (centres unmarked) [Compound 127, 3-(5-(3-(2,3-dihydrobenzofuran-6-yl)-2-oxoimidazolidin-1-yl)-1-oxoisoindolin-2-yl)piperidine-2,6-dione] | – | – | – | –
